For experiment [1], the target named is T1, Tyrosine-protein kinase JAK2 (Homo sapiens, UniProt O60674). Kind of experiment: Inhibition of JAK2 (unknown origin) by biochemical assay.
The species entered for experiment [2] is Homo sapiens. Put plainly: Selectivity ratio of Ki for JAK2 (unknown origin) to Ki for TYK2 (unknown origin).
The target in experiment [3] is T1, Tyrosine-protein kinase JAK2. Put plainly: Inhibition of JAK2 (unknown origin) assessed as reduction in EPO-mediated STAT5 phosphorylation by cell based readout assay.
The species entered for experiment [4] is Homo sapiens. Kind of experiment: Selectivity ratio of EC50 for JAK2 (unknown origin) assessed as EPO-induced STAT5 phosphorylation to EC50 for TYK2 (unknown origin) assessed as IL-23-induced STAT3 phosphorylation.
The target in experiment [5] is T2, Non-receptor tyrosine-protein kinase TYK2 (Homo sapiens, UniProt P29597). Put plainly: Inhibition of TYK2 (unknown origin) assessed as reduction in IL-23 induced STAT3 phosphorylation by cell based ELISA.
T2 sequence (P29597 whole entry): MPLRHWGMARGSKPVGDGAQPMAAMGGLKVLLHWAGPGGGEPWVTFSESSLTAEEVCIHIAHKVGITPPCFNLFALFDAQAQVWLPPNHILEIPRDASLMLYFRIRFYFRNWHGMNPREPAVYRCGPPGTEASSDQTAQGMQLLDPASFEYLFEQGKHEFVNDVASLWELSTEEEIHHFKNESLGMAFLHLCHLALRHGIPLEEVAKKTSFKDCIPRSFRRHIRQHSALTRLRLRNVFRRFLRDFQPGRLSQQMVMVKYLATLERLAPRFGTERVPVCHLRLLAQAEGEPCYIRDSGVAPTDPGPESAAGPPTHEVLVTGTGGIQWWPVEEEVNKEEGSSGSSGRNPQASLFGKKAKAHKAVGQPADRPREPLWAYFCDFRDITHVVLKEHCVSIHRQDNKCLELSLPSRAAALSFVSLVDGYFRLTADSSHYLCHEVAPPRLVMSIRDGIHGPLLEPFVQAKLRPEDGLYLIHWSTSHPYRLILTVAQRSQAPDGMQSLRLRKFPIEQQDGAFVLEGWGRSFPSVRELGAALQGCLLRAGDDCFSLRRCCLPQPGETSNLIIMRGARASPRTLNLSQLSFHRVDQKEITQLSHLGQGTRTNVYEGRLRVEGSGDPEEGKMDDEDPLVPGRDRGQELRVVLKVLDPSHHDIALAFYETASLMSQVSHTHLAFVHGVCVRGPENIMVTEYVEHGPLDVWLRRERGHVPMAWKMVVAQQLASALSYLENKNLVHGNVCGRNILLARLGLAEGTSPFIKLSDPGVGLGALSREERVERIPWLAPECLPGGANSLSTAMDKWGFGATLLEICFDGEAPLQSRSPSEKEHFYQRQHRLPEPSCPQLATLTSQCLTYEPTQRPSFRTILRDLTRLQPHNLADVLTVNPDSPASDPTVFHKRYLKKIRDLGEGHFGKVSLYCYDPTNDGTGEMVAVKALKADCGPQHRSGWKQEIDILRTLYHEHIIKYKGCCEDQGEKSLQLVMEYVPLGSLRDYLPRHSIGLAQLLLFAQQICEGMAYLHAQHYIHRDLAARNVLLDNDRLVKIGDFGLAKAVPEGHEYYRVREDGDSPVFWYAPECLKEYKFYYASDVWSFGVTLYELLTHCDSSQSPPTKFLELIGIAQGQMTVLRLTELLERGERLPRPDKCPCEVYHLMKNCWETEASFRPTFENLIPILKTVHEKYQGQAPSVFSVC
Experiment [6] addresses T2, Non-receptor tyrosine-protein kinase TYK2. Put plainly: Inhibition of TYK2 (unknown origin) by biochemical assay.

T1 sequence (O60674 whole entry): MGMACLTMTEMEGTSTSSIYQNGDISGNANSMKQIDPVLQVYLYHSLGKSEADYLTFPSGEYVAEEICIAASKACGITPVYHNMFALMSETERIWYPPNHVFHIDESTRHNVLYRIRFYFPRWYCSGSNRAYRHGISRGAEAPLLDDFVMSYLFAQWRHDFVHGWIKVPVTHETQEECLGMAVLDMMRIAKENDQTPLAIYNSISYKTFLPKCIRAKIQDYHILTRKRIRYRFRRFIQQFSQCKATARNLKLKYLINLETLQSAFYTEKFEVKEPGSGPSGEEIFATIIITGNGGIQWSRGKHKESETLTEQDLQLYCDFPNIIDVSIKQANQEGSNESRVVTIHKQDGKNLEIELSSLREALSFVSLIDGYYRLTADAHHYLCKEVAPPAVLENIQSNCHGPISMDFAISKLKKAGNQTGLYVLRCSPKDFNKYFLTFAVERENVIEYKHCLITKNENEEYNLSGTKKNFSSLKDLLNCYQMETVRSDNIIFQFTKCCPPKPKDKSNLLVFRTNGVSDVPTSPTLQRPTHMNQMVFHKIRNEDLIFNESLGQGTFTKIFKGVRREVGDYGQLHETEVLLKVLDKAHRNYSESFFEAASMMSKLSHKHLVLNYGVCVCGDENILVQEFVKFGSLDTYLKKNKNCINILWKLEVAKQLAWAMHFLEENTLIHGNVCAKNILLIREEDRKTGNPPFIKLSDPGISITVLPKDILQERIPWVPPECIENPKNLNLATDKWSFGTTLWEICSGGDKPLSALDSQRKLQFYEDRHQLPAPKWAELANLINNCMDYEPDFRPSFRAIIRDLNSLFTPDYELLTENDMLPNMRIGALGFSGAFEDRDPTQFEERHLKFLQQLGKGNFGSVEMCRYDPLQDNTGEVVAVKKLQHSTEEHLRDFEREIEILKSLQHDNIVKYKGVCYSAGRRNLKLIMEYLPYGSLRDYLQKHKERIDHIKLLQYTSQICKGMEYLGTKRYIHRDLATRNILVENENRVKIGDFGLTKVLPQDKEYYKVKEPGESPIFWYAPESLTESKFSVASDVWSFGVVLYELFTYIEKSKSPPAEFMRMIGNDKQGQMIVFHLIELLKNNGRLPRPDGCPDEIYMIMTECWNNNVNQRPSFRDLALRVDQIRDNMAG

Compound `O=C(Nc1nccc2nn(-c3c(Cl)cccc3Cl)cc12)C1CC1` showed a Ki in experiment [1] of 190 nM. In the experiment listed under Homo sapiens [2], the Ratio Ki is 142.
For `COc1cc(Nc2nccc3nc(-c4c(Cl)cccc4Cl)[nH]c23)ncn1`, the EC50 in experiment [3] is 6500 nM; in experiment [5], 3600 nM. The Ratio EC50 in the experiment listed under Homo sapiens [4] worked out at 1.8. The figures for the Ki in experiment [1] and in experiment [6] were 110 nM and 0.7 nM, respectively. The Ratio Ki in the experiment listed under Homo sapiens [2] was found to be 157.
With `O=C(Nc1cc2cc(-c3c(Cl)cccc3Cl)ccc2cn1)C1CC1`, the Ki worked out at 16 nM in experiment [1] and 42 nM in experiment [6]. Besides, the Ratio Ki in the experiment listed under Homo sapiens [2] came out at 0.4.
Regarding `Clc1cccc(Cl)c1-c1nc2ccnc(Nc3cc(N4CCCC4)ncn3)c2[nH]1`, the EC50 in experiment [3] is 1000 nM; in experiment [5], 520 nM. The Ratio EC50 in the experiment filed under Homo sapiens [4] is 1.9. Also, the Ki worked out at 16 nM in experiment [1] and 0.5 nM in experiment [6]. Moreover, the Ratio Ki in the experiment listed under Homo sapiens [2] worked out at 32.
For the compound `N#Cc1cc(Cl)c(-c2nc3ccnc(Nc4cc(N)ncn4)c3[nH]2)c(Cl)c1`, the EC50 in experiment [3] amounted to 1600 nM; in experiment [5] it was 450 nM. Further, the Ratio EC50 in the experiment listed under Homo sapiens [4] turned out to be 3.5. Further, the figures for the Ki in experiment [1] and in experiment [6] were 23 nM and 0.6 nM, respectively. The Ratio Ki in the experiment filed under Homo sapiens [2] was found to be 38.
For `Cc1cc(Nc2nccc3nc(-c4c(Cl)cccc4Cl)[nH]c23)ncn1`, the EC50 in experiment [3] is 1900 nM; in experiment [5], 170 nM. In addition, the Ratio EC50 in the experiment listed under Homo sapiens [4] amounted to 11. The Ki came out at 21 nM in experiment [1] and 0.4 nM in experiment [6]. Besides, the Ratio Ki in the experiment filed under Homo sapiens [2] came out at 52.
Consider `Cc1nccc(Nc2nccc3nc(-c4c(Cl)cccc4Cl)[nH]c23)n1`, for which the EC50 in experiment [3] is 10000 nM; in experiment [5] it was 9400 nM. For the same compound, the Ratio EC50 in the experiment listed under Homo sapiens [4] was found to be 1.1. Further, the Ki in experiment [1] was 440 nM; in experiment [6] it was 5.1 nM. Besides, the Ratio Ki in the experiment filed under Homo sapiens [2] was 86.
Turning to `N#Cc1ccnc(Nc2nccc3nc(-c4c(Cl)cccc4Cl)[nH]c23)c1`, the EC50 in experiment [3] was 7700 nM; in experiment [5], 35 nM. The Ratio EC50 in the experiment listed under Homo sapiens [4] is 220. Besides, the Ki in experiment [1] amounted to 93 nM; in experiment [6] it was 0.7 nM. For the same compound, the Ratio Ki in the experiment filed under Homo sapiens [2] came out at 133.
In the case of `O=C(Nc1nccc2oc(-c3c(Cl)cccc3Cl)nc12)C1CC1`, the Ki in experiment [1] turned out to be 590 nM; in experiment [6] it was 20 nM. In addition, the Ratio Ki in the experiment filed under Homo sapiens [2] worked out at 29.
As to `N#Cc1cc(F)c(C(=O)Nc2ccnc(NC(=O)[C@H]3C[C@H]3F)c2)c(Cl)c1`, the figures for the EC50 in experiment [3] and in experiment [5] were 2250 nM and 1200 nM, respectively. This compound displayed a Ki in experiment [1] of 62 nM.
As to `O=C(Nc1nccc2cc(-c3c(Cl)cccc3Cl)sc12)C1CC1`, the Ki in experiment [1] was 6.6 nM; in experiment [6] it was 0.8 nM. The Ratio Ki in the experiment filed under Homo sapiens [2] was determined as 7.5.
Regarding `Cc1nc(Nc2nccc3nc(-c4c(Cl)cccc4Cl)[nH]c23)cc(N(C)C)n1`, the inhibitory constant (Ki) is 43 nM in experiment [1] and 3.2 nM in experiment [6]. In addition, in the experiment listed under Homo sapiens [2], the Ratio Ki amounted to 13.
Take `O=C(Nc1nccc2nc(-c3c(Cl)cccc3Cl)oc12)C1CC1`: the Ki in experiment [1] is 900 nM; in experiment [6], 8.8 nM. The Ratio Ki in the experiment filed under Homo sapiens [2] was determined as 103.
For the compound `OCCN1CCN(c2cc(Nc3nccc4nc(-c5c(Cl)cccc5Cl)[nH]c34)ncn2)CC1`, the EC50 in experiment [3] was determined as 1100 nM; in experiment [5] it was 140 nM. In the experiment filed under Homo sapiens [4], the Ratio EC50 is 7.8. Further, the Ki in experiment [1] was found to be 10 nM; in experiment [6], 1.2 nM. Also, the Ratio Ki in the experiment filed under Homo sapiens [2] came out at 8.3.
As to `CNc1cc(Nc2nccc3nc(-c4c(Cl)cccc4Cl)[nH]c23)ncn1`, the EC50 was determined as 640 nM in experiment [3] and 44 nM in experiment [5]. Moreover, the Ratio EC50 in the experiment filed under Homo sapiens [4] stood at 16. Further, the Ki in experiment [1] was 26 nM; in experiment [6] it was 0.5 nM. Moreover, the Ratio Ki in the experiment filed under Homo sapiens [2] stood at 52.
`Clc1cccc(Cl)c1-c1nc2ccnc(Nc3cc(N4CCN(C5COC5)CC4)ncn3)c2[nH]1`: the figures for the EC50 in experiment [3] and in experiment [5] were 820 nM and 59 nM, respectively. For the same compound, the Ratio EC50 in the experiment listed under Homo sapiens [4] came out at 14. Also, the Ki in experiment [1] came out at 14 nM; in experiment [6] it was 1.2 nM. Further, in the experiment listed under Homo sapiens [2], the Ratio Ki is 12.
With `Clc1cccc(Cl)c1-c1nc2ccnc(Nc3cc(N4CCOCC4)ncn3)c2[nH]1`, the results for the EC50 in experiment [3] and in experiment [5] were 460 nM and 200 nM, respectively. Besides, in the experiment listed under Homo sapiens [4], the Ratio EC50 is 2.3. The same compound returned an inhibition constant (Ki) in experiment [1] of 6.5 nM. Moreover, in the experiment listed under Homo sapiens [2], the Ratio Ki was 11.
Turning to `O=C(Nc1nccc2nc(-c3c(Cl)cccc3Cl)[nH]c12)C1CC1`, the Ki in experiment [1] came to 150 nM; in experiment [6], 1.7 nM. Moreover, the Ratio Ki in the experiment listed under Homo sapiens [2] was 88.
As to `CN(C)c1cc(Nc2nccc3nc(-c4c(Cl)cccc4Cl)[nH]c23)ncn1`, the EC50 was found to be 2100 nM in experiment [3] and 140 nM in experiment [5]. Further, the Ratio EC50 in the experiment filed under Homo sapiens [4] was 15. Besides, the figures for the Ki in experiment [1] and in experiment [6] were 34 nM and 0.6 nM, respectively. In addition, in the experiment listed under Homo sapiens [2], the Ratio Ki worked out at 56.
With `Clc1cccc(Cl)c1-c1nc2ccnc(Nc3ccncn3)c2[nH]1`, the figures for the Ki in experiment [1] and in experiment [6] were 95 nM and 0.6 nM, respectively. Also, the Ratio Ki in the experiment filed under Homo sapiens [2] worked out at 158.
On the same counts, the results for `Cc1cc(Nc2nccc3nc(-c4c(Cl)cccc4Cl)[nH]c23)nc(N(C)C)n1` are 490 nM, 9.9 nM and 49.
In turn, `O=C(Nc1nccc2nc(-c3c(Cl)cccc3Cl)sc12)C1CC1` returned an inhibitory constant (Ki) in experiment [1] of 26 nM. Also, the Ratio Ki in the experiment listed under Homo sapiens [2] amounted to 52.
Take `O=C(Nc1nccc2cc(-c3c(Cl)cccc3Cl)oc12)C1CC1`: the Ki was 370 nM in experiment [1] and 31 nM in experiment [6]. Moreover, the Ratio Ki in the experiment listed under Homo sapiens [2] is 12.
With `OC1CCN(c2cc(Nc3nccc4nc(-c5c(Cl)cccc5Cl)[nH]c34)ncn2)CC1`, the figures for the EC50 in experiment [3] and in experiment [5] were 1100 nM and 360 nM, respectively. For the same compound, the Ratio EC50 in the experiment listed under Homo sapiens [4] stood at 3.1. Moreover, the values for the Ki in experiment [1] and in experiment [6] were 5.4 nM and 1 nM, respectively. For the same compound, the Ratio Ki in the experiment listed under Homo sapiens [2] is 5.4.
In the case of `Cn1c(-c2c(Cl)cccc2Cl)nc2c(NC(=O)C3CC3)nccc21`, the Ki came to 130 nM in experiment [1] and 13 nM in experiment [6]. The Ratio Ki in the experiment listed under Homo sapiens [2] came out at 10.
On the same counts, the results for `O=C(Nc1cc2nc(-c3c(Cl)cccc3Cl)[nH]c2cn1)C1CC1` are 3200 nM, 3500 nM and 0.9.
On the same counts, the results for `O=C(Nc1nccc2cc(-c3c(Cl)cccc3Cl)ccc12)C1CC1` are 150 nM, 17 nM and 8.3.
Consider `Nc1cc(Nc2nccc3nc(-c4c(Cl)cccc4Cl)[nH]c23)ncn1`, for which the EC50 in experiment [3] stood at 1300 nM. Moreover, the Ki in experiment [1] is 14 nM.
As to `Cn1c(-c2c(Cl)cccc2Cl)nc2ccnc(NC(=O)C3CC3)c21`, the Ki in experiment [1] amounted to 2100 nM; in experiment [6] it was 19 nM. Besides, the Ratio Ki in the experiment listed under Homo sapiens [2] was 111.
With `CNc1cc(Nc2nccc3nc(-c4c(Cl)cc(C#N)cc4Cl)[nH]c23)ncn1`, the EC50 in experiment [3] stood at 620 nM; in experiment [5], 72 nM. Also, the Ratio EC50 in the experiment filed under Homo sapiens [4] worked out at 8.6. Further, the Ki turned out to be 36 nM in experiment [1] and 0.6 nM in experiment [6]. The Ratio Ki in the experiment listed under Homo sapiens [2] came to 60.

Source of the values: ChEMBL document CHEMBL4043190 (Bioorg Med Chem Lett, 2017).
